From patent US6221865A, “Inhibitors of protein isoprenyl transferases” (priority 1998, dated 2001) come the findings set out here.

Counter-ions that a name gives are not always drawn. Like-named read-outs stand apart in the source and are kept apart here.

For orientation: inhibition means the share of the control response that was lost under treatment.

In the experiment the target is T1, protein farnesyltransferase (Rattus norvegicus, UniProt Q02293+Q04631).
T1 construct: The enzyme is purified according to Reiss, Y., et al., Cell, 62: 81-88 (1990), utilizing steps one through three; from tissue; host or cells: rat brain
Kind of experiment: Inhibition of farnesyltransferase (scintillation proximity assay, rat brain enzyme, biotin-K Ras B fragment substrate). It is filed as biochemical. To be noted: for % inhibition of farnesyltransferase at 1 × 10^-6 M / inhibition at 1 µM: 1 × 10^-6 M (Table 2); for inhibition at 1 µM: read-out: % inhibition of farnesyltransferase at 1 × 10^-6 M; for % inhibition of farnesyltransferase at 1 × 10^-8 M: 1 × 10^-8 M (Table 4); for % inhibition of farnesyltransferase at 1 × 10^-5 M: 1 × 10^-5 M (Table 1); for inhibition at 0.01 µM: read-out: % inhibition at 0.01 μM (**), Table 6, ** = 0.01 μM (footnote), title prints 0.01 mM. In a few lines: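 Enzyme from rat brain, partly purified (steps one to three), assayed by SPA kit using 0.1 mM final biotin-K Ras B peptide as prenyl acceptor rather than biotin-lamin. Activity given as percent inhibition.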
For orientation: SPA uses beads or plates that emit light when radiolabelled molecules are held near them.

Setting [1] is: read-out: % inhibition at 0.1 μM (*), Table 6, * = 0.1 μM (footnote), title prints 0.1 mM.

T1 sequence (Q02293 whole entry, one chain of several): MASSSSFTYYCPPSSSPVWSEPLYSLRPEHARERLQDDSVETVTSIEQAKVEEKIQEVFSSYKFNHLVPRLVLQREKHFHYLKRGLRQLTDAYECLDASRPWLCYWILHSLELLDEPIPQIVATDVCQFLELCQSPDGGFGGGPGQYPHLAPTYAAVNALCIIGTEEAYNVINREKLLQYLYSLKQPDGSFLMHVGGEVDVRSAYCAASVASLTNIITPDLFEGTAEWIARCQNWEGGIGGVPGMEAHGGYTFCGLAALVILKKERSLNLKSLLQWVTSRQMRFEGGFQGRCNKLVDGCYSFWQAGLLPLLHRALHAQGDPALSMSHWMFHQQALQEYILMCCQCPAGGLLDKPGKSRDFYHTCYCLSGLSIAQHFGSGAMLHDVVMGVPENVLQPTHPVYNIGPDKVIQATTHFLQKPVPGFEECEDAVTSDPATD

As for `CSCC[C@H](NC(=O)c1ccc(NC(=O)Cc2nccs2)cc1-c1ccccc1)C(=O)O` [Example 163], the “% inhibition of farnesyltransferase at 1 × 10^-6 M” value (“% inhibition … at 1 × 10^-6 M” below) came out at 18%. In the case of `CSCC[C@H](NC(=O)c1ccc(CN2CCC[C@H]2COc2cc(F)cc(F)c2)cc1-c1ccccc1C)C(=O)O` [Example 1115, N-[4-(2(S)-(3,5-difluorolphenoxy)methylpyffolidin-1-ylmethyl)-2-(2-methylphenyl)benzoyl]methionine], the inhibition at 0.1 µM under setting [1] is 94%. On to `CCCC(CCC)NOCc1ccc(C(=O)N[C@@H](CCSC)C(=O)O)c(-c2ccccc2C)c1` [Example 929, N-[4-(N-Hept-4-ylaminooxymethyl)-2-(2-methylphenyl)benzoyl]methionine], for which the inhibition at 0.1 µM (read-out: % inhibition of farnesyltransferase at 1 × 10^-7 M, 1 × 10^-7 M (Table 3)) stood at 81%. As for `CSCC[C@H](NC(=O)c1ccc(COc2ccc3ccccc3c2)cc1-c1ccccc1C)C(=O)O` [Example 573], the “% inhibition of farnesyltransferase at 1 × 10^-7 M” value (“% inhibition … at 1 × 10^-7 M” for short) (1 × 10^-7 M (Table 3)) was found to be 72%. `CSCC[C@H](NC(=O)c1ccc(CN(Cc2ccccc2)c2ccccc2SC)cc1-c1ccccc1C)C(=O)[O-].[Li+]` [Example 850]: the “% inhibition … at 1 × 10^-6 M” value amounted to 90%. For the compound `COC1CC(COCC2CCCCC2)N(Cc2ccc(C(=O)NC(CCSC)C(=O)O)c(-c3ccccc3C)c2)C1` [Example 1123, N-[4-(2(S)-cyclohexylmethoxymethyl-4(R-methoxypyrrolidin-1-ylmethyl)-2-(2-methylphenyl)benzoyl]methionine], the inhibition at 0.1 µM under setting [1] is 90%. Regarding `CSCC[C@H](NC(=O)c1ccc(COC2(c3ccccc3)CCN(C(=O)OC(C)(C)C)CC2)cc1-c1ccccc1C)C(=O)[O-].[Li+]` [Example 816], the “% inhibition … at 1 × 10^-6 M” value stood at 87%. Take `CCc1nnc(NCc2ccc(C(=O)N[C@@H](CCSC)C(=O)O)c(-c3ccccc3C)c2)s1` [Example 723]: the “% inhibition … at 1 × 10^-6 M” value amounted to 87%.

With `CSCC[C@H](NC(=O)c1ccc(CN2CCC(OCc3ccccc3)C2)cc1-c1ccccc1C)C(=O)O` (some centres unmarked) [Example 988, N-[4-(3-benzyloxypyrrolidin-1-ylmethyl)-2-(2-methylphenyl)benzoyl]methionine], the inhibition at 1 µM came out at 92%.

With `CSCC[C@H](NC(=O)c1ccc(COCC2CCCCC2)cc1-c1ccccc1C)C(=O)[O-].[Li+]` [Example 585], the “% inhibition … at 1 × 10^-7 M” value (1 × 10^-7 M (Table 3)) stood at 96%. For the compound `CSCC[C@H](NC(=O)c1ccc(NC[C@H]2NCC[C@H]2S)cc1-c1ccccc1)C(=O)O` [Example 960], the “% inhibition of farnesyltransferase at 1 × 10^-8 M” value (“% inhibition … at 1 × 10^-8 M” below) is listed as greater than 50%. For `CSCC[C@H](NC(=O)c1ccc(CNc2ccccc2N2CCCCC2)cc1-c1ccccc1)C(=O)O` [Example 673], the “% inhibition … at 1 × 10^-6 M” value is 59%. As to `CSCC[C@H](NC(=O)c1ccc(CCCc2ccc3ccccc3c2)cc1-c1ccccc1C)C(=O)O` [Example 470, N-[4-(3-naphth-2-ylpropyl)-2-(2-methylphenyl)benzoyl]methionine lithium salt], the inhibition at 1 µM stood at 95%.

Regarding `CSCC[C@H](NC(=O)c1ccc(NC(=O)C[C@H]2C[C@@H](C(C)=O)C2(C)C)cc1-c1ccccc1)C(=O)O` [Example 751], the “% inhibition … at 1 × 10^-6 M” value turned out to be 32%.

As for `CSCC[C@H](NC(=O)c1ccc(CNc2ccc(C(C)C)cc2)cc1-c1ccccc1)C(=O)O` [Example 692], the “% inhibition of farnesyltransferase at 1 × 10^-5 M” value (shortened to “% inhibition … at 1 × 10^-5 M”) stood at 74%. As to `CSCC[C@H](NC(=O)c1ccc(CNC(CO)Cc2ccc(Cl)cc2)cc1-c1ccccc1)C(=O)O` (some centres unmarked) [Example 662], the “% inhibition … at 1 × 10^-6 M” value is 68%. Regarding `CCSC[C@H](CC1CCCCC1)OCc1ccc(C(=O)N[C@@H](CCSC)C(=O)O)c(-c2ccccc2C)c1` [Example 606], the “% inhibition … at 1 × 10^-8 M” value amounted to 93%. On the same count and under the same terms, the result for `CSCC[C@H](NC(=O)c1ccc(COCc2cccc(C(C)C)c2)cc1-c1ccccc1C)C(=O)[O-].[Li+]` [Example 939] reads 72%.

For `CSCC[C@H](NC(=O)c1ccc(OCCCc2ccccc2)cc1-c1ccccc1C)C(=O)[O-].[Li+]` [Example 879], the “% inhibition … at 1 × 10^-6 M” value is given as 95%. In the case of `Cc1ccccc1-c1cc(COCc2ccccc2)ccc1C(=O)N[C@@H](CCS(C)(=O)=O)C(=O)O` [Example 576], the “% inhibition … at 1 × 10^-6 M” value is recorded as 88%. In the case of `CSCC[C@H](NC(=O)c1ccc(CN(c2ccccc2)S(=O)(=O)c2ccc(C(F)(F)F)cc2)cc1-c1ccccc1C)C(=O)O` [Example 780], the “% inhibition … at 1 × 10^-8 M” value is listed as 71%. With `CSCC[C@H](NC(=O)c1ccc(CN(CCC#N)Cc2ccccc2)cc1-c1ccccc1)C(=O)O` [Example 649], the “% inhibition … at 1 × 10^-6 M” value was found to be 86%. `CSCC[C@H](NC(=O)c1ccc(CNc2ccc(O)cc2)cc1-c1ccccc1)C(=O)O` [Example 689]: the “% inhibition … at 1 × 10^-5 M” value was 73%. As to `CSCC[C@H](NC(=O)c1ccc(CN2CCC[C@H]2COC2CCCCC2)cc1-c1ccccc1C)C(=O)O` [Example 1116, N-[4-(2(S)-cyclohexyloxymethylpyrrolidin-1-ylmethyl)-2-(2-methylphenyl)benzoyl]methionine], the inhibition at 0.01 µM came to 91%. As for `CSCC[C@H](NC(=O)c1ccc(/C=C/c2cccc3ccccc23)cc1-c1ccccc1C)C(=O)O` [Example 466, N-[4-(2-naphth-1-ylethenyl)-2-(2-methylphenyl)benzoyl]methionine lithium salt], the inhibition at 1 µM is 93%. For the compound `CSCC[C@H](NC(=O)c1ccc(CN(Cc2ccccc2)Cc2ccco2)cc1-c1ccccc1C)C(=O)O` [Example 504], the “% inhibition … at 1 × 10^-6 M” value is listed as 90%. For `CSCC[C@H](NC(=O)c1ccc(COCCCCc2ccccc2)cc1-c1ccccc1C)C(=O)O` [Example 601], the “% inhibition … at 1 × 10^-7 M” value (1 × 10^-7 M (Table 3)) came to 92%.

Consider `CSCC[C@H](NC(=O)c1ccc(COCc2cc3ccccc3o2)cc1-c1ccccc1C)C(=O)[O-].[Li+]` [Example 533], for which the “% inhibition … at 1 × 10^-7 M” value (1 × 10^-7 M (Table 3)) worked out at 91%. Turning to `CSCC[C@H](NC(=O)c1ccc(COCc2ccc(-c3ccc(Cl)cc3)o2)cc1-c1ccccc1C)C(=O)NS(=O)(=O)c1ccccc1` [Example 819], the “% inhibition … at 1 × 10^-8 M” value amounted to 76%. `CSCC[C@H](NC(=O)c1ccc(CS[C@H](CO)Cc2ccccc2)cc1-c1ccccc1)C(=O)O` [Example 545]: the “% inhibition … at 1 × 10^-6 M” value is 88%. As to `CSCC[C@H](NC(=O)c1ccc(COCc2cc(-c3ccc(Cl)cc3)co2)cc1-c1ccccc1C)C(=O)[O-].[Li+]` [Example 904], the “% inhibition … at 1 × 10^-8 M” value came out at 85%.

Regarding `CCCCN(CC1CCCCC1)OCc1ccc(C(=O)N[C@@H](CCSC)C(=O)O)c(-c2ccccc2C)c1` [Example 1186], the inhibition at 0.01 µM was 93%. For `CSCC[C@H](NC(=O)c1ccc(CN(CCCc2ccccc2)c2ccccc2)cc1-c1ccccc1C)C(=O)O` [Example 508], the “% inhibition … at 1 × 10^-6 M” value was found to be 95%. Turning to `CSCC[C@H](NC(=O)c1ccc(CN2CCN(C(=O)OC(C)(C)C)CC2)cc1-c1ccccc1C)C(=O)O` [Example 866, N-[4-(4-t-butoxycarbonylpiperazin-1-ylmethyl)-2-(2-methylphenyl)benzoyl]methionine], the inhibition at 1 µM worked out at 62%.

As for `CSCC[C@H](NC(=O)c1ccc(CNC(CC2CCCCC2)C2CCCCC2)cc1-c1ccccc1C)C(=O)[O-].[Li+]` (some centres unmarked) [Example 616], for the setting “1 × 10^-7 M (Table 3)”, the “% inhibition … at 1 × 10^-7 M” value worked out at 95%. For `CSCC[C@H](NC(=O)c1ccc(CN2CC[C@H]2COCC2CCCCC2)cc1-c1ccccc1C)C(=O)O` [Example 1114, N-[4-(2(S)-cyclohexylmethoxymethylazetidin-1-ylmethyl)-2-(2-methylphenyl)benzoyl]methionine], the inhibition at 0.01 µM came out at 83%. As for `CCCCS(=O)(=O)N(Cc1ccc(C(=O)N[C@@H](CCSC)C(=O)O)c(-c2ccccc2C)c1)CC1CCCCC1` [Example 996], the “% inhibition … at 1 × 10^-8 M” value was 80%.

Turning to `CSCC[C@H](NC(=O)c1ccc(CN(Cc2ccccc2)c2ccc([N+](=O)[O-])cc2)cc1-c1ccccc1C)C(=O)O` [Example 843], the “% inhibition … at 1 × 10^-8 M” value is given as 96%. Take `CSCC[C@H](NC(=O)c1ccc(CNCCN2CCOCC2)cc1-c1ccccc1)C(=O)O` [Example 365]: the “% inhibition … at 1 × 10^-5 M” value stood at 97%. Regarding `CSCC[C@H](NC(=O)c1ccc(CNc2cc(C)cc(C)c2)cc1-c1ccccc1)C(=O)O` [Example 709], the “% inhibition … at 1 × 10^-5 M” value stood at 55%. For `CSCC[C@H](NC(=O)c1ccc(CN(C(C)C)C2(Cc3ccccc3)CC2)cc1-c1ccccc1C)C(=O)O` [Example 325], the inhibition at 1 µM worked out at 99%.

For the compound `CSCC[C@H](NC(=O)c1ccc(NC(=O)[C@@H](N)COCc2ccccc2)cc1-c1ccccc1)C(=O)O` [Example 503], the “% inhibition … at 1 × 10^-6 M” value is on record as 57%. `CCSC[C@H](CC(C)C)N(C)Cc1ccc(C(=O)N[C@@H](CCSC)C(=O)O)c(-c2ccccc2C)c1` [Example 906]: where the note is “1 × 10^-7 M (Table 3)”, the “% inhibition … at 1 × 10^-7 M” value was 88%. As to `CSCC[C@H](NC(=O)c1ccc(CO[C@@H](CC2CCCCC2)CN2CCOCC2)cc1-c1ccccc1C)C(=O)O` [Example 885], the “% inhibition … at 1 × 10^-8 M” value is on record as 95%.

Take `COc1ncc(COCc2ccc(C(=O)N[C@@H](CCSC)C(=O)O)c(-c3ccccc3C)c2)s1` [Example 896]: the “% inhibition … at 1 × 10^-7 M” value (1 × 10^-7 M (Table 3)) turned out to be 96%. With `CSCC[C@H](NC(=O)c1ccc(COCCc2ccc(Cl)cc2Cl)cc1-c1ccccc1C)C(=O)[O-].[Li+]` [Example 591], the “% inhibition … at 1 × 10^-8 M” value was 82%. Same read-out and setting: in the case of `CSCC[C@H](NC(=O)c1ccc(COCc2ccccc2Cl)cc1-c1ccccc1C)C(=O)[O-].[Li+]` [Example 930] it was 66%.
